Laboratory results: patent US20260240746A1, “TOPICAL COMPOSITION AND IMPLEMENTATIONS THEREOF” (ULTRAMARINE & PIGMENTS LIMITED, priority 2022, published 2026)
“And” between values parts separate entries of the source, which are not always exact repeats. Identical values can stand only once.

Tests used:
skin = assay: Moisturization analysis (Scalar moisture checker); format: in vivo, human; settings: skin of the hand, 20° C., 60% RH
Protocol: The topical composition samples of the present disclosure and the commercial silicones (cyclopentasiloxane, dimethicone) were applied on a skin patch and the moisture content was analyzed for a duration of 8 hrs. The test was conducted on 3 volunteers. Three areas were marked on the skin of the hand. The composition was applied by rubbing in a circular direction for a period of two minute on the marked areas. The third area was kept blank. The readings were taken after five minutes of drying by Scaler Moisture Checker. The temperature of the room was kept at 20° C. and humidity was maintained at 60% RH. The moisture analysis was done using moisture checker from Scalar Impressive works. Scalar moisture checker works on the principle of capacitance to measure the permittivity of skin. […] The checker was pressed on the desired area perpendicularly to the skin and was held for a few seconds. […] Moisture level Content of 45.1 and above represent a very high moisture level, when moisture level is between 39.1-45.0 it is high normal, between 27.1-39.0 is mid normal, between 22.1-27.0 is low normal, between 12.1 to 22.0 is low and below 12.1 is very low moisture level. A graph of time after application and the moisture level content was plotted for each composition.

[1] = tested on: Murine fibroblast cell line (3T3); assay: Skin reactivity analysis by agar diffusion assay; format: cell-based; settings: 3T3 cells, 24 hours exposure
Protocol: Skin reactivity analysis was carried out for the topical composition samples by agar diffusion assay. Murine fibroblast cell line (3T3) cells were seeded onto 60 mm tissue culture grade plastic Petri dishes and incubated for 24 hrs. After 24 hrs the media was replaced by a layer of 1% agar. Stock solution of 100 mg/ml of reference standard was prepared in sterile phosphate buffered saline (PBS) and tested at 10% (100 mg/ml). 5 μl of reference standard was loaded on to 6 mm sterile Whatman filter paper discs which were placed on the agar layer. Neat topical composition sample was used for testing. Approximately 5 μl of the topical composition sample was loaded on to 6 mm sterile Whatman filter paper discs which were placed on the agar layer. Sterile PBS was used as the negative control. Positive and negative controls were run concurrently. After an exposure of 24 hours to the samples, the assays were terminated by the addition of MTT (3-[4,5-dimethylthiazol-2-yl]-2,5-diphenyltetrazolium bromide; Thiazolyl blue) (Sigma M 5655) and incubated overnight in the dark. The following day, the cells were observed under the microscope and checked for the presence of crystals under the area of sample loading. The sample causing cell death was indicated by a clear zone of inhibition. The colour was allowed to develop overnight and the zone of inhibition was measured. The readings of the test samples were then scored based on comparisons with the positive and negative controls in compliance with the USP (U.S. Pharmacopoeia) grades for the agar diffusion test (Table 2).

SMILES	moisture content retained until 8 hours after application (skin; 8 hours after application)	moisture content after application (skin; after application)	Reactivity [1]	Zone of Inhibition, mean per experiment ([1]; sample neat (100% concentration), Expt 1-3, sulphate)	Zone of Inhibition, individual readings ([1]; sample neat (100% concentration), reference standard 10% (100 mg/ml), Expt 1-3, sulphate)	Zone of Inhibition, Mean ± SD of three independent experiments ([1]; sample neat (100% concentration), listed as positive control, sulphate)	Zone of Inhibition, Mean ± SD of three independent experiments ([1]; sample neat (100% concentration), sulphate)
C[Si]1(C)O[Si](C)(C)O[Si](C)(C)O[Si](C)(C)O[Si](C)(C)O1 [Cyclopentasiloxane, cyclopentasiloxane]	21%	23%					
CCCCCCCCCCCCOS(=O)(=O)[O-].[Na+] [Positive Control, sodium dodecyl sulphate]			Severe (Zone extends greater than 1.0 cm beyond specimen)	1.08 cm and 1.14 cm and 1.20 cm	1.05 cm and 1.03 cm and 1.17 cm and 1.13 cm and 1.07 cm and 1.23 cm and 1.20 cm and 1.18 cm and 1.22 cm	1.14±0.06 cm	1.14 ± 0.06 cm
